Measured values from patent US20240058422A1, “GLUCAGON-LIKE PEPTIDE-1 RECEPTOR ANTAGONISTS” (INDIANA UNIVERSITY RESEARCH AND TECHNOLOGY CORPORATION, priority 2022, published 2024).
Starred links: 1 amine or outer side, 2 acyl side, 3 side chain; linkers in the order of their positions; H or OH if unused. Residues, ends and D or L forms follow the SMILES beside them. Groups on a side chain read outwards from the residue. *: point of attachment. γGlu = O=C(O)[C@H](CCC(=O)[*:2])N[*:1]; Palmitoyl = CCCCCCCCCCCCCCCC(=O)*; AEEA = NCCOCCOCC(=O)O

How the values were obtained:
Solubility in buffer = settings: 80 mM ammonium bicarbonate buffer, pH 7.7, Solubility [mg/mL] 80 mM AmBicarb pH7.7, Table 2; 80 mM AmBicarb pH7.7
GLP-1R = GLP-1R (Homo sapiens, UniProt P43220); assay: GLP-1 receptor-mediated cAMP induction, luciferase reporter gene antagonism assay; format: cell-based; set-up: host or cells: HEK 293; settings: Table 2; C16 linker variants of 9-40amide Jant4 K40[X]; antagonism of 0.05 nM GLP-1, HEK 293 cells; read-out: Biactivity IC50
Sequence of GLP-1R (P43220 24-463): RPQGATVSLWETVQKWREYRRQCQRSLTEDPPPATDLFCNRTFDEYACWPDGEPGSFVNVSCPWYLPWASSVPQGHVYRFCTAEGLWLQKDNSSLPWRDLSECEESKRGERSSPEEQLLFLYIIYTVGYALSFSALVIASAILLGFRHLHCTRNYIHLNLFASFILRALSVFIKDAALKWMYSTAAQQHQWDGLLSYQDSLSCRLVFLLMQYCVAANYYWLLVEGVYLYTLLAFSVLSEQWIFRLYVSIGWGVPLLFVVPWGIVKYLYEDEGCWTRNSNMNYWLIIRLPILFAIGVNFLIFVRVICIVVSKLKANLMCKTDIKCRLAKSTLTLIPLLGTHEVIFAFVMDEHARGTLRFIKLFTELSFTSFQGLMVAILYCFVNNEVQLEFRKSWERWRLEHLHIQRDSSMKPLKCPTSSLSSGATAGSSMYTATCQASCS
Description: GLP-1 Receptor-Mediated cAMP Induction The ability of peptides to stimulate or block cAMP induction at the GLP-1 receptor was examined by a luciferase-based reporter gene assay. Cotransfection of HEK 293 cells with the human GLP-1 receptor (Open Biosystems) and a cAMPinducible (cAMPresponsive element) luciferase gene constituted the cellular construct where receptor activation could be measured. Bioassays were performed by first serum depriving the cells for 16 h in 0.25% bovine growth serum (HyClone)-supplemented Dulbecco's modified Eagle's medium (Invitrogen) and then adding serial dilutions of the peptides over the appropriate concentration ranges in 96-well poly-D-lysine-coated plates (BD Biosciences). For antagonism assays, a constant concentration of GLP-1 (0.05 nM) was added to the assay plate after the diluted peptides. Incubation continued for 5 h at 37° C., 5% CO2 and was followed by the addition of an equivalent volume (100 μL) of LucLite luminescence substrate reagent (Perkin-Elmer). MicroBeta 1450 liquid scintillation counting (Perkin-Elmer) quantified the luminescence signal in counts per second (cps) after shaking the plate at 600 rpm for 3 min. Data was plotted using Origin software (OriginLab) and the effective concentration 50 (EC50) or inhibitory concentration 50 (IC50) was determined by sigmoidal fitting. Potency was determined by comparative analysis of relative EC50 or IC50 values. Each experiment was repeated at least three times with each sample assayed in duplicate.

Row | SMILES | solubility (Solubility in buffer) [mg/mL] | IC50 (GLP-1R) [nM]
1 | CCCCCCCCCCCCCCCC(=O)N[C@@H](CCC(=O)NCCCC[C@H](NC(=O)[C@H](CO)NC(=O)[C@@H]1CCCN1C(=O)[C@@H]1CCCN1C(=O)[C@@H]1CCCN1C(=O)[C@H](C)NC(=O)CNC(=O)[C@H](CO)NC(=O)[C@H](CO)NC(=O)[C@@H]1CCCN1C(=O)CNC(=O)CNC(=O)[C@H](CCCCN)NC(=O)[C@@H](NC(=O)[C@H](CC(C)C)NC(=O)[C@H](Cc1c[nH]c2ccccc12)NC(=O)[C@H](C)NC(=O)[C@@H](NC(=O)[C@H](Cc1ccccc1)NC(=O)[C@H](CCC(=O)O)NC(=O)[C@H](CCCNC(=N)N)NC(=O)[C@@H](NC(=O)[C@H](C)NC(=O)[C@H](CCC(N)=O)NC(=O)[C@H](CCC(=O)O)NC(=O)[C@H](CCC(=O)O)NC(=O)[C@H](CC(C)C)NC(=O)[C@H](Cc1ccc(O)cc1)NC(=O)[C@H](CO)NC(=O)[C@H](CO)NC(=O)[C@@H](NC(=O)[C@@H](N)CC(=O)O)C(C)C)C(C)C)[C@@H](C)CC)C(C)C)C(N)=O)C(=O)O [compound 52] (H-DVSSYLEEQAVREFIAWLVKGGPSSGAPPPSK([γGlu-Palmitoyl])-NH2; N-terminus assumed) | > 20 | 12
2 | CCCCCCCCCCCCCCCC(=O)N[C@@H](CCC(=O)N[C@@H](CCC(=O)NCCCC[C@H](NC(=O)[C@H](CO)NC(=O)[C@@H]1CCCN1C(=O)[C@@H]1CCCN1C(=O)[C@@H]1CCCN1C(=O)[C@H](C)NC(=O)CNC(=O)[C@H](CO)NC(=O)[C@H](CO)NC(=O)[C@@H]1CCCN1C(=O)CNC(=O)CNC(=O)[C@H](CCCCN)NC(=O)[C@@H](NC(=O)[C@H](CC(C)C)NC(=O)[C@H](Cc1c[nH]c2ccccc12)NC(=O)[C@H](C)NC(=O)[C@@H](NC(=O)[C@H](Cc1ccccc1)NC(=O)[C@H](CCC(=O)O)NC(=O)[C@H](CCCNC(=N)N)NC(=O)[C@@H](NC(=O)[C@H](C)NC(=O)[C@H](CCC(N)=O)NC(=O)[C@H](CCC(=O)O)NC(=O)[C@H](CCC(=O)O)NC(=O)[C@H](CC(C)C)NC(=O)[C@H](Cc1ccc(O)cc1)NC(=O)[C@H](CO)NC(=O)[C@H](CO)NC(=O)[C@@H](NC(=O)[C@@H](N)CC(=O)O)C(C)C)C(C)C)[C@@H](C)CC)C(C)C)C(N)=O)C(=O)O)C(=O)O [compound 53] (H-DVSSYLEEQAVREFIAWLVKGGPSSGAPPPSK([γGlu-γGlu-Palmitoyl])-NH2) | > 20 | 13
3 | CCCCCCCCCCCCCCCC(=O)N[C@@H](CCC(=O)N[C@@H](CCC(=O)N[C@@H](CCC(=O)N[C@@H](CCC(=O)NCCCC[C@H](NC(=O)[C@H](CO)NC(=O)[C@@H]1CCCN1C(=O)[C@@H]1CCCN1C(=O)[C@@H]1CCCN1C(=O)[C@H](C)NC(=O)CNC(=O)[C@H](CO)NC(=O)[C@H](CO)NC(=O)[C@@H]1CCCN1C(=O)CNC(=O)CNC(=O)[C@H](CCCCN)NC(=O)[C@@H](NC(=O)[C@H](CC(C)C)NC(=O)[C@H](Cc1c[nH]c2ccccc12)NC(=O)[C@H](C)NC(=O)[C@@H](NC(=O)[C@H](Cc1ccccc1)NC(=O)[C@H](CCC(=O)O)NC(=O)[C@H](CCCNC(=N)N)NC(=O)[C@@H](NC(=O)[C@H](C)NC(=O)[C@H](CCC(N)=O)NC(=O)[C@H](CCC(=O)O)NC(=O)[C@H](CCC(=O)O)NC(=O)[C@H](CC(C)C)NC(=O)[C@H](Cc1ccc(O)cc1)NC(=O)[C@H](CO)NC(=O)[C@H](CO)NC(=O)[C@@H](NC(=O)[C@@H](N)CC(=O)O)C(C)C)C(C)C)[C@@H](C)CC)C(C)C)C(N)=O)C(=O)O)C(=O)O)C(=O)O)C(=O)O [compound 54] (H-DVSSYLEEQAVREFIAWLVKGGPSSGAPPPSK([γGlu-γGlu-γGlu-γGlu-Palmitoyl])-NH2) | > 20 | 21
4 | CCCCCCCCCCCCCCCC(=O)N[C@@H](CCC(=O)N[C@@H](CCC(=O)N[C@@H](CCC(=O)N[C@@H](CCC(=O)N[C@@H](CCC(=O)N[C@@H](CCC(=O)NCCCC[C@H](NC(=O)[C@H](CO)NC(=O)[C@@H]1CCCN1C(=O)[C@@H]1CCCN1C(=O)[C@@H]1CCCN1C(=O)[C@H](C)NC(=O)CNC(=O)[C@H](CO)NC(=O)[C@H](CO)NC(=O)[C@@H]1CCCN1C(=O)CNC(=O)CNC(=O)[C@H](CCCCN)NC(=O)[C@@H](NC(=O)[C@H](CC(C)C)NC(=O)[C@H](Cc1c[nH]c2ccccc12)NC(=O)[C@H](C)NC(=O)[C@@H](NC(=O)[C@H](Cc1ccccc1)NC(=O)[C@H](CCC(=O)O)NC(=O)[C@H](CCCNC(=N)N)NC(=O)[C@@H](NC(=O)[C@H](C)NC(=O)[C@H](CCC(N)=O)NC(=O)[C@H](CCC(=O)O)NC(=O)[C@H](CCC(=O)O)NC(=O)[C@H](CC(C)C)NC(=O)[C@H](Cc1ccc(O)cc1)NC(=O)[C@H](CO)NC(=O)[C@H](CO)NC(=O)[C@@H](NC(=O)[C@@H](N)CC(=O)O)C(C)C)C(C)C)[C@@H](C)CC)C(C)C)C(N)=O)C(=O)O)C(=O)O)C(=O)O)C(=O)O)C(=O)O)C(=O)O [compound 55] (H-DVSSYLEEQAVREFIAWLVKGGPSSGAPPPSK([γGlu-γGlu-γGlu-γGlu-γGlu-γGlu-Palmitoyl])-NH2; N-terminus assumed) | > 20 | 22
5 | CCCCCCCCCCCCCCCC(=O)N[C@@H](CCC(=O)NCCOCCOCC(=O)N[C@@H](CCC(=O)NCCOCCOCC(=O)NCCCC[C@H](NC(=O)[C@H](CO)NC(=O)[C@@H]1CCCN1C(=O)[C@@H]1CCCN1C(=O)[C@@H]1CCCN1C(=O)[C@H](C)NC(=O)CNC(=O)[C@H](CO)NC(=O)[C@H](CO)NC(=O)[C@@H]1CCCN1C(=O)CNC(=O)CNC(=O)[C@H](CCCCN)NC(=O)[C@@H](NC(=O)[C@H](CC(C)C)NC(=O)[C@H](Cc1c[nH]c2ccccc12)NC(=O)[C@H](C)NC(=O)[C@@H](NC(=O)[C@H](Cc1ccccc1)NC(=O)[C@H](CCC(=O)O)NC(=O)[C@H](CCCNC(=N)N)NC(=O)[C@@H](NC(=O)[C@H](C)NC(=O)[C@H](CCC(N)=O)NC(=O)[C@H](CCC(=O)O)NC(=O)[C@H](CCC(=O)O)NC(=O)[C@H](CC(C)C)NC(=O)[C@H](Cc1ccc(O)cc1)NC(=O)[C@H](CO)NC(=O)[C@H](CO)NC(=O)[C@@H](NC(=O)[C@@H](N)CC(=O)O)C(C)C)C(C)C)[C@@H](C)CC)C(C)C)C(N)=O)C(=O)O)C(=O)O [compound 59] (H-DVSSYLEEQAVREFIAWLVKGGPSSGAPPPSK([AEEA-γGlu-AEEA-γGlu-Palmitoyl])-NH2; N-terminus assumed) | > 25 | 11
6 | CCCCCCCCCCCCCCCC(=O)NCCOCCOCC(=O)N[C@@H](CCC(=O)N[C@@H](CCC(=O)NCCOCCOCC(=O)NCCCC[C@H](NC(=O)[C@H](CO)NC(=O)[C@@H]1CCCN1C(=O)[C@@H]1CCCN1C(=O)[C@@H]1CCCN1C(=O)[C@H](C)NC(=O)CNC(=O)[C@H](CO)NC(=O)[C@H](CO)NC(=O)[C@@H]1CCCN1C(=O)CNC(=O)CNC(=O)[C@H](CCCCN)NC(=O)[C@@H](NC(=O)[C@H](CC(C)C)NC(=O)[C@H](Cc1c[nH]c2ccccc12)NC(=O)[C@H](C)NC(=O)[C@@H](NC(=O)[C@H](Cc1ccccc1)NC(=O)[C@H](CCC(=O)O)NC(=O)[C@H](CCCNC(=N)N)NC(=O)[C@@H](NC(=O)[C@H](C)NC(=O)[C@H](CCC(N)=O)NC(=O)[C@H](CCC(=O)O)NC(=O)[C@H](CCC(=O)O)NC(=O)[C@H](CC(C)C)NC(=O)[C@H](Cc1ccc(O)cc1)NC(=O)[C@H](CO)NC(=O)[C@H](CO)NC(=O)[C@@H](NC(=O)[C@@H](N)CC(=O)O)C(C)C)C(C)C)[C@@H](C)CC)C(C)C)C(N)=O)C(=O)O)C(=O)O [compound 60] (H-DVSSYLEEQAVREFIAWLVKGGPSSGAPPPSK([AEEA-γGlu-γGlu-AEEA-Palmitoyl])-NH2; N-terminus assumed) | > 25 | 5
7 | CCCCCCCCCCCCCCCC(=O)NCCOCCOCC(=O)N[C@@H](CCC(=O)NCCOCCOCC(=O)N[C@@H](CCC(=O)NCCCC[C@H](NC(=O)[C@H](CO)NC(=O)[C@@H]1CCCN1C(=O)[C@@H]1CCCN1C(=O)[C@@H]1CCCN1C(=O)[C@H](C)NC(=O)CNC(=O)[C@H](CO)NC(=O)[C@H](CO)NC(=O)[C@@H]1CCCN1C(=O)CNC(=O)CNC(=O)[C@H](CCCCN)NC(=O)[C@@H](NC(=O)[C@H](CC(C)C)NC(=O)[C@H](Cc1c[nH]c2ccccc12)NC(=O)[C@H](C)NC(=O)[C@@H](NC(=O)[C@H](Cc1ccccc1)NC(=O)[C@H](CCC(=O)O)NC(=O)[C@H](CCCNC(=N)N)NC(=O)[C@@H](NC(=O)[C@H](C)NC(=O)[C@H](CCC(N)=O)NC(=O)[C@H](CCC(=O)O)NC(=O)[C@H](CCC(=O)O)NC(=O)[C@H](CC(C)C)NC(=O)[C@H](Cc1ccc(O)cc1)NC(=O)[C@H](CO)NC(=O)[C@H](CO)NC(=O)[C@@H](NC(=O)[C@@H](N)CC(=O)O)C(C)C)C(C)C)[C@@H](C)CC)C(C)C)C(N)=O)C(=O)O)C(=O)O [compound 62] (H-DVSSYLEEQAVREFIAWLVKGGPSSGAPPPSK([γGlu-AEEA-γGlu-AEEA-Palmitoyl])-NH2; N-terminus assumed) | > 25 | 7
